Measurements reported in patent US20230265116A1, “DEGRADATION OF (EGFR) BY CONJUGATION OF EGFR INHIBITORS WITH E3 LIGASE LIGAND AND METHODS OF USE” (BEIGENE, LTD., priority 2020, published 2023).
Where two headings read alike, the source gives them in different places.

Tests used:
[1] = target: T1, EGFR L858R/T790M/C797S (BaF3-LTC cells) (Homo sapiens, UniProt P00533, C797S/L858R/T790M); assay: EGFR degradation HTRF assay, BaF3-LTC cells; assay type: cell-based; settings: BaF3-LTC, 16h treatment; for Dmax: maximum percentage of degradation, read-out: LTC Dmax (%); for DC50: read-out: LTC DC50
T1 construct: expressed in transfected cells; host or cells: BaF3
T1 sequence (P00533 25-1210 T790M/C797S/L858R): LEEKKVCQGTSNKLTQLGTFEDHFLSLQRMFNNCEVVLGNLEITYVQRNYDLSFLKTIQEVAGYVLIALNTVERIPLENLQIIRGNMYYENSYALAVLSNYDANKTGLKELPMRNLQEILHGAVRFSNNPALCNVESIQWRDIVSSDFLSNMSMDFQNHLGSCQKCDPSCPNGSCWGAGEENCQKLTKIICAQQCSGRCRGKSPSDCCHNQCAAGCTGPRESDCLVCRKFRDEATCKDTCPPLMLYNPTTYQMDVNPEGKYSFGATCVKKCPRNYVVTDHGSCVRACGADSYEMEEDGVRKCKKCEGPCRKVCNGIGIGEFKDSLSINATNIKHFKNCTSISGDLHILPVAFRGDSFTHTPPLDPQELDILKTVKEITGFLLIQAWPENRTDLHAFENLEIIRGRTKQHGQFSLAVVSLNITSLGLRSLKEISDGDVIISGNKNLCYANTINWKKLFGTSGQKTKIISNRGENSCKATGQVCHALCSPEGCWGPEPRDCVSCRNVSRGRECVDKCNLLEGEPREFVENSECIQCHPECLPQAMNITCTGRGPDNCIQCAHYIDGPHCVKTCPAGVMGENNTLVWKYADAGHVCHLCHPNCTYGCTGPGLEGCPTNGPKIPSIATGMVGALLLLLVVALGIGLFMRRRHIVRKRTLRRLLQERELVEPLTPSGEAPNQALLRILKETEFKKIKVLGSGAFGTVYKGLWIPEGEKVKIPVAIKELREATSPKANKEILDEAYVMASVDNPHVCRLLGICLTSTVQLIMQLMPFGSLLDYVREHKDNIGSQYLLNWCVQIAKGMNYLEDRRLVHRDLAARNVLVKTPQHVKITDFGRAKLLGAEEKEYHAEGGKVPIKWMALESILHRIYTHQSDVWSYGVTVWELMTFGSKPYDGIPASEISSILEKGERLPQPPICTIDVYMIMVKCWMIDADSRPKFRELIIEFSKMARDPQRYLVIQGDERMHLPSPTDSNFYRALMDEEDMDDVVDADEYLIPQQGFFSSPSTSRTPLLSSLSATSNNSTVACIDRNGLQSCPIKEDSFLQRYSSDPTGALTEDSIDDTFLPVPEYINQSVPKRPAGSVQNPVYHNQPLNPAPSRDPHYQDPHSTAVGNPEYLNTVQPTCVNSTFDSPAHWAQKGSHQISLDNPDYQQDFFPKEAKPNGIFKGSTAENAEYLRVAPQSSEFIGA
In short: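 Cells treated 16 h at 37 °C, 5% CO2 in medium with 0.2% DMSO; top final concentration 10 uM, 5-fold dilution, 8 doses. Lysates read by HTRF (665/620 nm); degradation % versus DMSO high control, DC50 from four-parameter fit, Dmax as maximal degradation.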

[2] = test system: EGFR Del19/T790M/C797S (BaF3-DTC cells); assay: EGFR degradation HTRF assay, BaF3-DTC cells; assay type: cell-based; settings: for DTC Dmax (%): maximum percentage of degradation
In short: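 EGFR remaining after a 16 h, 37 °C exposure (8 doses, 5-fold steps from 10 uM final, 0.2% DMSO) was quantified by HTRF antibodies in cell lysate. Percent inhibition relative to DMSO control was fitted by four-parameter logistic to give DC50; Dmax denotes maximal degradation.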

[3] = 16h treatment, read-out: DTC DC50

Dmax [1] | DC50 [1] | DC50 [2, 3] | SMILES | DTC Dmax (%) ([2]; 16h treatment) | DC50 ([2]; read-out: DTC DC50, 16h treatment)
93.2% | 6.11 nM | 1.91 nM | CCc1cc(Nc2ncc(Br)c(Nc3ccc4nc(C)ccc4c3P(C)(C)=O)n2)c(OC)cc1N1CCC(N2CCN(CCc3ccc4c(c3)N(C3CCC(=O)NC3=O)C(=O)C4(C)C)CC2)CC1 (centres unmarked) [Example 413, 3-(6-(2-(4-(1-(4-((5-bromo-4-((5-(dimethylphosphoryl)-2-methylquinolin-6-yl)amino)pyrimidin-2-yl)amino)-2-ethyl-5-methoxyphenyl)piperidin-4-yl)piperazin-1-yl)ethyl)-3,3-dimethyl-2-oxoindolin-1-yl)piperidine-2,6-dione] | 95.66% | 
89% | 6.67 nM | 4.34 nM | CCc1cc(Nc2ncc(Br)c(Nc3ccc4nc(C5CC5)ccc4c3P(C)(C)=O)n2)c(OC)cc1N1CCC(N2CCN(CC3CN(c4ccc5c(c4)CN(C4CCC(=O)NC4=O)C5=O)C3)CC2)CC1 (centres unmarked) [Example 426, 3-(5-(3-((4-(1-(4-((5-bromo-4-((2-cyclopropyl-5-(dimethylphosphoryl)quinolin-6-yl)amino)pyrimidin-2-yl)amino)-2-ethyl-5-methoxyphenyl)piperidin-4-yl)piperazin-1-yl)methyl)azetidin-1-yl)-1-oxoisoindolin-2-yl)piperidine-2,6-dione] | 91.88% | 
88.3% | 8.61 nM | 7.1 nM | CCc1cc(Nc2ncc(Br)c(Nc3ccc4nc(C5CC5)ccc4c3P(C)(C)=O)n2)c(OC)cc1N1CCC(N2CCN(CCc3cc(F)c(C4CCC(=O)NC4=O)c(F)c3)CC2)CC1 (centres unmarked) [Example 427, 3-(4-(2-(4-(1-(4-((5-bromo-4-((2-cyclopropyl-5-(dimethylphosphoryl)quinolin-6-yl)amino)pyrimidin-2-yl)amino)-2-ethyl-5-methoxyphenyl)piperidin-4-yl)piperazin-1-yl)ethyl)-2,6-difluorophenyl)piperidine-2,6-dione] | 93.94% | 
93.5% | 3.67 nM | 1.13 nM | CCc1cc(Nc2ncc(Br)c(Nc3ccc4ncn(C)c(=O)c4c3P(C)(C)=O)n2)c(OC)cc1N1CCC(N2CCN(CCc3cc(F)c(C4CCC(=O)NC4=O)c(F)c3)CC2)CC1 (centres unmarked) [Example 428, 3-(4-(2-(4-(1-(4-((5-bromo-4-((5-(dimethylphosphoryl)-3-methyl-4-oxo-3,4-dihydroquinazolin-6-yl)amino)pyrimidin-2-yl)amino)-2-ethyl-5-methoxyphenyl)piperidin-4-yl)piperazin-1-yl)ethyl)-2,6-difluorophenyl)piperidine-2,6-dione] | 95.35% | 
91.3% | 5.15 nM | 2.33 nM | CCc1cc(Nc2ncc(Br)c(Nc3ccc4c(=O)n(C)ccc4c3P(C)(C)=O)n2)c(OC)cc1N1CCC(N2CCN(CCc3cc(F)c(C4CCC(=O)NC4=O)c(F)c3)CC2)CC1 (centres unmarked) [Example 429, 3-(4-(2-(4-(1-(4-((5-bromo-4-((5-(dimethylphosphoryl)-2-methyl-1-oxo-1,2-dihydroisoquinolin-6-yl)amino)pyrimidin-2-yl)amino)-2-ethyl-5-methoxyphenyl)piperidin-4-yl)piperazin-1-yl)ethyl)-2,6-difluorophenyl)piperidine-2,6-dione] | 94.9% | 
94.5% | 4.5 nM | 2.64 nM | COc1cc(N2CCC(N3CCN(CCc4cc(F)c(C5CCC(=O)NC5=O)c(F)c4)CC3)CC2)c(C(C)O)cc1Nc1ncc(Br)c(Nc2ccc3nccnc3c2P(C)(C)=O)n1 (centres unmarked) [Example 430, 3-(4-(2-(4-(1-(4-((5-bromo-4-((5-(dimethylphosphoryl)quinoxalin-6-yl)amino)pyrimidin-2-yl)amino)-2-(1-hydroxyethyl)-5-methoxyphenyl)piperidin-4-yl)piperazin-1-yl)ethyl)-2,6-difluorophenyl)piperidine-2,6-dione] | 97.63% | 
91% | 12.4 nM | 2.7 nM | CCc1cc(Nc2ncc(Br)c(Nc3ccc4c(=O)n(C)ncc4c3P(C)(C)=O)n2)c(OC)cc1N1CCC(N2CCN(CCc3cc(F)c(C4CCC(=O)NC4=O)c(F)c3)CC2)CC1 (centres unmarked) [Example 431, 3-(4-(2-(4-(1-(4-((5-bromo-4-((5-(dimethylphosphoryl)-2-methyl-1-oxo-1,2-dihydrophthalazin-6-yl)amino)pyrimidin-2-yl)amino)-2-ethyl-5-methoxyphenyl)piperidin-4-yl)piperazin-1-yl)ethyl)-2,6-difluorophenyl)piperidine-2,6-dione] | 97.96% | 
93% | 4.24 nM | 1.19 nM | CCc1cc(Nc2ncc(Br)c(Nc3ccc4nc(C)ccc4c3P(C)(C)=O)n2)c(OC)cc1N1CCC(N2CCN(C(=O)CNc3cc(F)c(C4CCC(=O)NC4=O)c(F)c3)CC2)CC1 (centres unmarked) [Example 432, 3-(4-((2-(4-(1-(4-((5-bromo-4-((5-(dimethylphosphoryl)-2-methylquinolin-6-yl)amino)pyrimidin-2-yl)amino)-2-ethyl-5-methoxyphenyl)piperidin-4-yl)piperazin-1-yl)-2-oxoethyl)amino)-2,6-difluorophenyl)piperidine-2,6-dione] | 94.91% | 
90.8% | 9.35 nM | 4.29 nM | CCc1cc(Nc2ncc(Br)c(Nc3ccc4nc(C)ccc4c3P(C)(C)=O)n2)c(OC)cc1N1CCC(N2CCN(CCN(C)c3cc(F)c(C4CCC(=O)NC4=O)c(F)c3)CC2)CC1 (centres unmarked) [Example 433, 3-(4-((2-(4-(1-(4-((5-bromo-4-((5-(dimethylphosphoryl)-2-methylquinolin-6-yl)amino)pyrimidin-2-yl)amino)-2-ethyl-5-methoxyphenyl)piperidin-4-yl)piperazin-1-yl)ethyl)(methyl)amino)-2,6-difluorophenyl)piperidine-2,6-dione] | 93.56% | 
88.2% | 9.32 nM | 4.43 nM | CCc1cc(Nc2ncc(Br)c(Nc3ccc4nc(C(F)(F)F)ccc4c3P(C)(C)=O)n2)c(OC)cc1N1CCC(N2CCN(C(=O)C3CN(c4ccc5c(c4)CN(C4CCC(=O)NC4=O)C5=O)C3)CC2)CC1 (centres unmarked) [Example 434, 3-(5-(3-(4-(1-(4-((5-bromo-4-((5-(dimethylphosphoryl)-2-(trifluoromethyl)quinolin-6-yl)amino)pyrimidin-2-yl)amino)-2-ethyl-5-methoxyphenyl)piperidin-4-yl)piperazine-1-carbonyl)azetidin-1-yl)-1-oxoisoindolin-2-yl)piperidine-2,6-dione] | 85.05% | 
89.9% | 23.9 nM | 7.48 nM | CCc1cc(Nc2ncc(Br)c(Nc3ccc4nc(C(F)(F)F)ccc4c3P(C)(C)=O)n2)c(OC)cc1N1CCC(N2CCN(CCc3cc(F)c(C4CCC(=O)NC4=O)c(F)c3)CC2)CC1 (centres unmarked) [Example 435, 3-(4-(2-(4-(1-(4-((5-bromo-4-((5-(dimethylphosphoryl)-2-(trifluoromethyl)quinolin-6-yl)amino)pyrimidin-2-yl)amino)-2-ethyl-5-methoxyphenyl)piperidin-4-yl)piperazin-1-yl)ethyl)-2,6-difluorophenyl)piperidine-2,6-dione] | 92.59% | 
91.2% | 28 nM | 14.9 nM | CCc1cc(Nc2ncc(Br)c(Nc3ccc4nc(C(F)(F)F)ccc4c3P(C)(C)=O)n2)c(OC)cc1N1CCC(N2CCN(CCC3CCN(c4cc(F)c(C5CCC(=O)NC5=O)c(F)c4)CC3)CC2)CC1 (centres unmarked) [Example 437, 3-(4-(4-(2-(4-(1-(4-((5-bromo-4-((5-(dimethylphosphoryl)-2-(trifluoromethyl)quinolin-6-yl)amino)pyrimidin-2-yl)amino)-2-ethyl-5-methoxyphenyl)piperidin-4-yl)piperazin-1-yl)ethyl)piperidin-1-yl)-2,6-difluorophenyl)piperdine-2,6-dione] | 83.88% | 
93.6% | 4.28 nM | 0.601 nM | CCc1cc(Nc2ncc(Br)c(Nc3ccc4ncn(C)c(=O)c4c3P(C)(C)=O)n2)c(OC)cc1N1CCC(N2CCN(CCc3cccc4c3n(C)c(=O)n4C3CCC(=O)NC3=O)CC2)CC1 (centres unmarked) [Example 698, 3-(4-(2-(4-(1-(4-((5-bromo-4-((5-(dimethylphosphoryl)-3-methyl-4-oxo-3,4-dihydroquinazolin-6-yl)amino)pyrimidin-2-yl)amino)-2-ethyl-5-methoxyphenyl)piperidin-4-yl)piperazin-1-yl)ethyl)-3-methyl-2-oxo-2,3-dihydro-1H-benzo[d]imidazol-1-yl)piperidine-2,6-dione] | 94.26% | 

SMILES | Dmax [1] | DC50 [1] | DC50 [2, 3] | DTC Dmax (%) ([2]; 16h treatment) | DC50 ([2]; read-out: DTC DC50, 16h treatment)
CCc1cc(Nc2ncc(Br)c(Nc3ccc4nc(C)ccc4c3P(C)(C)=O)n2)c(OC)cc1N1CCC(N2CCN(C(=O)C3CCN(c4ccc5c(c4)C(C)(C)C(=O)N5C4CCC(=O)NC4=O)CC3)CC2)CC1 (centres unmarked) [Example 436, 3-(5-(4-(4-(1-(4-((5-bromo-4-((5-(dimethylphosphoryl)-2-methylquinolin-6-yl)amino)pyrimidin-2-yl)amino)-2-ethyl-5-methoxyphenyl)piperidin-4-yl)piperazine-1-carbonyl)piperidin-1-yl)-3,3-dimethyl-2-oxoindolin-1-yl)piperidine-2,6-dione] | 92.5% | 3.2 nM |  | 89.14% | 2.38 nM
